Experimental data: ChEMBL document CHEMBL1134983, “Core-modified sordaricin derivatives: synthesis and antifungal activity” (2002)
≈ marks a conversion by molar mass, not a printed value.

Columns and labels:
Type in all cases: functional
[1] = system: Candida albicans; test: Anti-fungal activity against Candida albicans A28235 (WT)
[2] = system: Candida albicans; test: Anti-fungal activity against Candida albicans A28660 (WT)
[3] = system: Nakaseomyces glabratus; test: Anti-fungal activity against Candida glabrata A28790 (WT)

SMILES | MIC [1] | MIC [2] | MIC [3]
CCCCCCOCC12C[C@@H]3[C@H](C)[C@@H](O)C[C@H]3C3(C=O)CC1C=C(C(C)C)[C@@]23C(=O)O | 32 µg/mL (≈ 74 µM) | 64 µg/mL (≈ 148 µM) | > 128 µg/mL
CCCCCCOCC12C[C@@]34[C@@H](CC[C@]3(C)C4(Cl)Cl)C3(C=O)CC1C=C(C(C)C)[C@@]23C(=O)O | 32 µg/mL (≈ 64.3 µM) | 32 µg/mL (≈ 64.3 µM) | 64 µg/mL (≈ 129 µM)
CCCCCCOCC12C[C@@H]3[C@H](C)C(=O)C[C@H]3C3(C=O)CC1C=C(C(C)C)[C@@]23C(=O)O | 4 µg/mL (≈ 9.29 µM) | 8 µg/mL (≈ 18.6 µM) | 32 µg/mL (≈ 74.3 µM)
CCCCCCOCC12C[C@@H]3[C@H](C)[C@H](F)C[C@H]3C3(C=O)CC1C=C(C(C)C)[C@@]23C(=O)O | 0.25 µg/mL (≈ 0.575 µM) | 0.5 µg/mL (≈ 1.15 µM) | 1 µg/mL (≈ 2.3 µM)
CCCCCCOCC12C[C@H]3[C@@H](CC[C@]3(C)O)C3(C=O)CC1C=C(C(C)C)[C@@]23C(=O)O | 4 µg/mL (≈ 9.25 µM) | 8 µg/mL (≈ 18.5 µM) | 32 µg/mL (≈ 74 µM)
COC1C(O)[C@H](O)[C@H](OC[C@@]23C[C@@H]4[C@H](C)CC[C@H]4[C@@]4(C=O)CC2C=C(C(C)C)[C@@]34C(=O)O)O[C@@H]1C (single isomer, unassigned) [SORDARIN] | 16 µg/mL (≈ 32.5 µM) |  | > 128 µg/mL

The next molecules have a lower MIC [1] than those just listed; values first:

MIC [1] | MIC [2] | MIC [3] | SMILES
0.125 µg/mL (≈ 0.302 µM) | 0.5 µg/mL (≈ 1.21 µM) | 8 µg/mL (≈ 19.3 µM) | CCCCCCOCC12CC3=C(C)CC[C@H]3C3(C=O)CC1C=C(C(C)C)[C@@]23C(=O)O
0.06 µg/mL (≈ 0.144 µM) | 0.06 µg/mL (≈ 0.144 µM) | 0.125 µg/mL (≈ 0.3 µM) | CCCCCCOCC12C[C@@H]3[C@H](C)CC[C@H]3C3(C=O)CC1C=C(C(C)C)[C@@]23C(=O)O
